Series [1] is described as follows: Absorption and fluorescence properties in water. It is filed as physicochemical. The note with it: for λem: excitation wavelength 380 nm. As for the experimental part:
To determine the wavelength of light, at which 1,1-dimethyl-2-[(E)-2-phenylethenyl]-1H-benzo[e]indole derivatives should be irradiated for the investigation of their photodynamic activity, the absorption and fluorescence properties thereof were measured in water. The excitation wavelength λex was set to 380 nm. Based on the results an in-house constructed LED based light source specifically designed for the irradiation of 96-well microplates and Petri dishes (Tomecka et al., CZ302829B6, 2006) was chosen, with a maximal wavelength emission of 414 nm and light intensity set to 20 mW/cm^2.

Series [2] concerns G361 cells (human skin melanoma). In words: MTT cell viability assay with photodynamic treatment. The note with it: 4 h treatment, further 72 h, MTT. It counts as cell-based. The method, then: For photodynamic treatments, G361 cells (human skin melanoma) were cultivated in DMEM medium without phenol red supplemented with 10% fetal bovine serum, 100 U/mL penicillin, 100 μg/mL streptomycin, 2 mM glutamine, at 37° C. in 5% CO2 atmosphere. Cells were treated with test compounds and after 4 h were irradiated (the maximal wavelength emission of 414 nm and different total doses up to 10 J/cm^2). Further cultivation lasted for subsequent 16, 24 or 72 h.
Cell viability (EC50) was determined using the MTT (Sigma-Aldrich) assay in 96-well microplates. Cells were seeded, next day treated with test compounds for 4 h and subsequently irradiated (the maximal wavelength emission of 414 nm and total dose of 2.5 and 10 J/cm^2). After irradiation, the cells were incubated for further 72 h and then the MTT solution was added. Cells were incubated for another 4 h at 37° C. and then the 0.1% SDS was added to the wells to solubilize the violet formazan crystals. The measurement of absorbance was carried out on reader Tecan Infinite M200Pro at 570 nm. Dark viability was measured in parallel under the same conditions without irradiation.
Background: Tetrazolium dyes change colour on reduction, which living cells bring about.

[3] abbreviates: G-361, dark kept G361 cells, read-out: G361 - EC50, Dark.
Where [4] appears, read: G-361, light or radiation study, light irradiated (414 nm, 10 J/cm^2) G361 cells, irradiation, read-out: G361 - EC50, 10 J/cm^2.

pEC50: −log10 of the molar value. Read-outs that look alike come from different tables or passages of the source.

For the molecule `CC1(C)C(/C=C/c2cccc([N+](=O)[O-])c2)=Nc2ccc3ccccc3c21` [Compound 3m, 1,1-Dimethyl-2-[(E)-2-(3-nitrophenyl)ethenyl]-1H-benzo[e]indole], in series [1], the Stokes shift is recorded as 89 nm, the λabs was found to be 424 nm and the λem came to 513 nm. In series [2] (setting [3]), the pEC50 was 5.68. Also, the pEC50 in series [2] (setting [4]) is 6.52.
For the molecule `CC1(C)C(/C=C/c2ccc(Cl)c([N+](=O)[O-])c2)=Nc2ccc3ccccc3c21` [Compound 3h, 2-[(E)-2-(4-Chloro-3-nitrophenyl)ethenyl]-1,1-dimethyl-1H-benzo[e]indole], in series [1], the Stokes shift is reported as 106 nm, the λabs is reported as 426 nm and the λem is on record as 532 nm. For the same molecule, the pEC50 in series [2] (setting [3]) was 5.14. The pEC50 in series [2] (setting [4]) is 6.52.
On to `Cc1ccc(/C=C/C2=Nc3ccc4ccccc4c3C2(C)C)cc1[N+](=O)[O-]` [Compound 3k, 1,1-Dimethyl-2-[(E)-2-(4-methyl-3-nitrophenyl)ethenyl]-1H-benzo[e]indole], for which, in series [1], the Stokes shift amounted to 98 nm, the λabs is listed as 425 nm and the λem is 523 nm. Moreover, the pEC50 in series [2] (setting [3]) was 5.16. Besides, in series [2] (setting [4]), the pEC50 is 5.89.
In the same order, the values of `CC1(C)C(/C=C/c2ccccc2[N+](=O)[O-])=Nc2ccc3ccccc3c21` [Compound 3p, 1,1-Dimethyl-2-[(E)-2-(2-nitrophenyl)ethenyl]-1H-benzo[e]indole] are 132 nm, 434 nm, 566 nm, 5.11 and 5.96.
In the same order, the values of `COc1ccc(/C=C/C2=Nc3ccc4ccccc4c3C2(C)C)cc1[N+](=O)[O-]` [Compound 3f, 2-[(E)-2-(4-Methoxy-3-nitrophenyl)ethenyl]-1,1-dimethyl-1H-benzo[e]indole] are 146 nm, 403 nm, 549 nm, 5.31 and 6.70.
As for `CC1(C)C(/C=C/c2cc(C(F)(F)F)cc(C(F)(F)F)c2)=Nc2ccc3ccccc3c21` [Compound 3b, 2-{(E)-2-[3,5-Bis(trifluoromethyl)phenyl]ethenyl}-1,1-dimethyl-1H-benzo[e]indole], in series [1], the Stokes shift is on record as 109 nm, the λabs is 400 nm and the λem is 509 nm. Also, the pEC50 in series [2] (setting [3]) is under 5.00. For the same molecule, in series [2] (setting [4]), the pEC50 was 5.89.
In the same order, the values of `CC1(C)C(/C=C/c2ccccc2)=Nc2ccc3ccccc3c21` [Compound 3a, 1,1-Dimethyl-2-[(E)-2-phenylethenyl]-1H-benzo[e]indole] are 133 nm, 397 nm, 530 nm, 5.24 and 5.70.
As to `CC1(C)C(/C=C/c2cccc(C(F)(F)F)c2)=Nc2ccc3ccccc3c21` [Compound 3n, 1,1-Dimethyl-2-{(E)-2-[3-(trifluoromethyl)phenyl]ethenyl}-1H-benzo[e]indole], in series [1], the Stokes shift was 94 nm, the λabs is recorded as 426 nm and the λem is 520 nm. Also, the pEC50 in series [2] (setting [3]) was 5.11. Further, the pEC50 in series [2] (setting [4]) is 5.89.
In the same order, the values of `CC1(C)C(/C=C/c2ccc(F)c([N+](=O)[O-])c2)=Nc2ccc3ccccc3c21` [Compound 3i, 2-(E)-2-(4-Fluoro-3-nitrophenyl)ethenyl-1,1-dimethyl-1H-benzo[e]indole] are 126 nm, 399 nm, 525 nm, 5.11 and 5.68.
